From US10947323B2, “Capped cyclodextrin-hydrophobic moiety conjugate, cyclodextrin supramolecular polymer, and cyclodextrin-siRNA complex and method of synthesis thereof” (SORBONNE UNIVERSITE, priority 2016, dated 2021) come the findings set out here.

In one series the test system is HEK293 cells. The series can be described thus: Toxicity test (cell viability, ATP activity, CellTiter Glo 2.0). The series is classed as cell-based, human. The following applies: over the range of N/P ratios, 24 hours. On the procedure:
In order to evaluate the toxicity of compound 11 of example 1 on HEK293 cells, the kit CellTiter Glo 2.0 (Promega) has been used.
One day before the transfection, the cells HEK293 are deposited in a 96-wells plaque: 1·10^3 cell/wells and then treated with 200 μL of DMEM, SVF 10%, without antibiotics, in order that the cells reach a 30-50% of confluence the day after.
The day of the transfection, the cells are incubated with the complex siRNA-cyclodextrin conjugate obtained in example 1 and Lipofectamine 2000.siRNA at 37° C. during 24 hours until analysis of the cells viability (ATP activity) using a kit CellTiter Glo 2.0.
For this aim 100 μL/wells of CellTiter Glo 2.0. reactant are added to the cells before the plaque be analyzed by luminescence.
Background: Cellular ATP, detected with luciferase, serves as a proxy for viable cell number.

Series [1] has as its system firefly luciferase GL3 expression in HEK293 cells. As to the kind of experiment: KnockDown test of the luciferase GL3 gene (siRNA transfection, One-Glo luminescence). The class given is cell-based, human. The following applies: siRNA complexes, N/P ratio of 1190, 24 hours, untransfected cells = 100% expression. As for the experimental part: The cell line to be transfected is a cell line of human embryonic kidney 293 cells (HEK293). This cell line is cultivated with a DMEM medium to which SVF (10%) is added.
The cultures are made in an incubator at 37° C., 5% of CO2. The cell line HEK293 express constitutively the firefly luciferase GL3.
The HEK293 cells are deposited in a 96 wells plaque 1·10^3 cell/wells.
The siRNA which is used is the luciferase GL3 siRNA.
Transfection of cell line HEK293 with the siRNA directed against the firefly luciferase GL3 with as vector of transfection the […] obtained in example 1 or Lipofectamine 2000 (used as a positive reference of transfection) has been carried out.
The efficacy of transfection on the cells has been evaluated by a method of luminescence.
One day before the transfection, the HEK293 cells are deposited in a 96 wells plaque: 1·10^3 cell/wells treated in 200 μL of DMEM, SVF 10%, without antibiotics, in order that the cells reach a 30-50% of confluence the day after.
The day of the transfection, the 200 μL/wells of medium are withdrawn. […]
This latter is incubated at 37° C. during 24 hours until the analysis by luminescence of the KD of the gene of the luciferase (Kit One-Glo luciferase assay (Promega)).
For this aim, 100 μL/wells of reactants are added to the cells before the plaque be analyzed by luminescence.

The next series has as its system siRNA. The series can be described thus: Agarose gel electrophoresis of siRNA complex formation at increasing N/P ratios. The series is classed as binding. The following applies: at low N/P ratios; 100 V, 40 min. On the procedure:
In order to characterize the formation of complexes between the siRNA and the compound 11 of the invention obtained in example 1, an electrophorese technique on agarose gel has been used.
The molecule of siRNA and of compound of example 1 have been migrated according to N/P previously chosen.
A solution of 17 μL of siRNA-compound of example 1 is prepared in sterile water and incubated during 20 minutes at ambient temperature.
Then, this solution is deposited on the gel with 3 μL of bromophenol blue before launching the migration: 100 V, 40 min.
Third, thanks to the experiment with agarose electrophoresis gel, it has been shown that capped cyclodextrine-adamantane conjugate are able to interact and to complex siRNA. Indeed, capped cyclodextrine-adamantane complex formation was evaluated at increasing N/P ratios using agarose gel electrophoresis. (FIG. 3)
N/P ratio corresponds to the amount of protonated aminated residue of the cationic species divided by the amount of phosphate residues coming from the nucleic acids.^14 This ratio enables to compare the efficiency of a cationic compound to be complexed with nucleic acids. ^14 Pharmaceutics. 2011, 3, 125-140

A value given as a limit tells only on which side of the number the result lay.

Consider `OCC1O[C@@H]2O[C@@H]3C(CO)O[C@H](O[C@@H]4C5CN(CCC67CC8CC(CC(C8)C6)C7)CCCCNCC6O[C@H](O[C@@H]7C(CO)O[C@H](O[C@H]1C(O)C2O)C(O)C7O)C(O)C(O)[C@@H]6O[C@H]1OC(CO)[C@@H](O[C@H]2OC(CO)[C@@H](O[C@@H](O5)C(O)C4O)C(O)C2O)C(O)C1O)C(O)C3O` (stereo partly drawn) [compose 11], for which the “cytotoxicity of transfection with siRNA complexes” value in the series on HEK293 cells is given as “no cytotoxicity”. For the same compound, the “knockdown of GL3 luciferase expression” value in series [1] is at most 50%. Moreover, the “binding (complexation) of siRNA, no migration of siRNA in gel” value in the series with siRNA is given as “complete binding of siRNA”.
